# Where a SMILES comes first, the peptide text is derived from it. The star is where a group is joined. Cbz = O=C(OCc1ccccc1)*
# System: RAW264.7
# Assay: Anti-inflammatory activity against mouse RAW264.7 cells assessed as inhibition of LPS-induced NO production pretreated with compound for 2 hrs followed by LPS stimulation for 12 hrs by Griess reagent based analysis
# Format: functional, cell-based
row,Compound,IC50 [µM]
1,O=C1C[C@@H](O)[C@]23Oc4cccc5c4[C@](CC[C@@H]5O)(Oc4ccc(O)c1c42)O3,12.8
2,Cc1cc2c(c(=O)o1)[C@@H]1[C@H](O2)[C@H](O)c2c(O)ccc3c2[C@@]12Oc1cccc4c1[C@](C=C[C@@H]4O)(O3)O2,8.5

# Stronger by IC50, values ahead:
row,IC50 [µM],Compound
1,5.9,Oc1ccc2c3c1[C@@H](O)[C@H]1O[C@H]1[C@]31Oc3cccc4c3[C@](CC[C@@H]4O)(O2)O1
2,4.8,Cc1cc2c(c(=O)o1)[C@@H]1[C@H](O2)[C@H](O)c2c(O)ccc3c2[C@@]12Oc1cccc4c1[C@](CC[C@@H]4O)(O3)O2
3,2.6,CC(C)C[C@@H](C=O)NC(=O)[C@H](CC(C)C)NC(=O)[C@H](CC(C)C)NC(=O)OCc1ccccc1 [MG-132] (Cbz-Leu-Leu-Leu-aldehyde)

# — ChEMBL document CHEMBL5233286, “Lasiodiplodiapyrones A and B, Pyrone-Preussomerin Adducts with Highly Strained Polycyclic Ring Systems from Lasiodiplodia pseudotheobromae” (J Nat Prod, 2023)
